Laboratory results taken from the supplement of paper PMC13207355.

Tests used:
Conditions in all cases: exposure time: 72 h
FT3469 [1] = normal neural stem cell line; test: phenotypic distance (Euclidean, principal components) from DMSO controls (arbitrary units); higher = stronger morphological change
E34 [2] = patient-derived glioblastoma stem cells of proneural subtype; test: as above
E21 [3] = patient-derived glioblastoma stem cells of mesenchymal subtype; test: as above
E28 [4] = patient-derived glioblastoma stem cells of classical subtype; test: as above
E13 [5] = patient-derived glioblastoma stem cells of classical subtype; test: as above
E57 [6] = patient-derived glioblastoma stem cells of mesenchymal subtype; test: as above
E31 [7] = patient-derived glioblastoma stem cells of proneural subtype; test: as above
FT3469 [8] = test: surviving fraction (nuclei count normalised to DMSO); higher = more cells surviving (less toxic)
E34 [9] = test: as above
E21 [10] = test: as above
E28 [11] = test: as above
E13 [12] = test: as above
E57 [13] = test: as above
E31 [14] = test: as above
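For phenotypic distance (Euclidean, principal components) from DMSO controls in this document: cell Painting imaging in 384-well plates, CellProfiler features reduced to at least 20 principal components, Euclidean distance versus same-plate DMSO vehicle wells (0.1% v/v), median over six images per well.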
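For surviving fraction (nuclei count normalised to DMSO) in this document: nuclei counted by high-content imaging of Hoechst-stained cells in laminin-coated 384-well plates, relative to 0.1% DMSO vehicle wells, with staurosporine as cell-death control.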

O=c1c2ccccc2[se]n1-c1ccccc1 [Ebselen]
Conditions | phenotypic distance | surviving fraction
E13 [5], 4.11523 nM | 0.891 | –
E13 [5], 12.34567901 nM | 0.779 | –
E13 [5], 37.037 nM | 0.477 | –
E13 [5], 111.1111111 nM | 0.532 | –
E13 [5], 333.333 nM | 0.51 | –
E13 [5], 1000 nM | 0.854 | –
E13 [5], 3000 nM | 1.59 | –
E13 [12], 4.11523 nM | – | 1.18
E13 [12], 12.34567901 nM | – | 1.04
E13 [12], 37.037 nM | – | 1.05
E13 [12], 111.1111111 nM | – | 1.07
E13 [12], 333.333 nM | – | 1.16
E13 [12], 1000 nM | – | 1.11
E13 [12], 3000 nM | – | 0.579
E21 [3], 4.11523 nM | 0.63 | –
E21 [3], 12.34567901 nM | 1.29 | –
E21 [3], 37.037 nM | 0.667 | –
E21 [3], 111.1111111 nM | 1.02 | –
E21 [3], 333.333 nM | 0.791 | –
E21 [3], 1000 nM | 0.556 | –
E21 [3], 3000 nM | 1.89 | –
E21 [10], 4.11523 nM | – | 1.06
E21 [10], 12.34567901 nM | – | 1.15
E21 [10], 37.037 nM | – | 1.11
E21 [10], 111.1111111 nM | – | 1.08
E21 [10], 333.333 nM | – | 1.1
E21 [10], 1000 nM | – | 1.14
E21 [10], 3000 nM | – | 0.582
E28 [4], 4.11523 nM | 0.754 | –
E28 [4], 12.34567901 nM | 1.01 | –
E28 [4], 37.037 nM | 0.601 | –
E28 [4], 111.1111111 nM | 0.529 | –
E28 [4], 333.333 nM | 0.764 | –
E28 [4], 1000 nM | 0.79 | –
E28 [4], 3000 nM | 2.56 | –
E28 [11], 4.11523 nM | – | 0.974
E28 [11], 12.34567901 nM | – | 1.18
E28 [11], 37.037 nM | – | 1.14
E28 [11], 111.1111111 nM | – | 1.12
E28 [11], 333.333 nM | – | 1.15
E28 [11], 1000 nM | – | 1.1
E28 [11], 3000 nM | – | 0.0788
E31 [7], 4.11523 nM | 0.71 | –
E31 [7], 12.34567901 nM | 0.778 | –
E31 [7], 37.037 nM | 0.875 | –
E31 [7], 111.1111111 nM | 0.398 | –
E31 [7], 333.333 nM | 0.33 | –
E31 [7], 1000 nM | 0.763 | –
E31 [7], 3000 nM | 3.3 | –
E31 [14], 4.11523 nM | – | 0.993
E31 [14], 12.34567901 nM | – | 0.922
E31 [14], 37.037 nM | – | 1.2
E31 [14], 111.1111111 nM | – | 1.12
E31 [14], 333.333 nM | – | 1.13
E31 [14], 1000 nM | – | 0.905
E31 [14], 3000 nM | – | 0.127
E34 [2], 4.11523 nM | 0.415 | –
E34 [2], 12.34567901 nM | 0.549 | –
E34 [2], 37.037 nM | 0.806 | –
E34 [2], 111.1111111 nM | 0.859 | –
E34 [2], 333.333 nM | 0.532 | –
E34 [2], 1000 nM | 1.03 | –
E34 [2], 3000 nM | 1.91 | –
E34 [9], 4.11523 nM | – | 0.901
E34 [9], 12.34567901 nM | – | 1.1
E34 [9], 37.037 nM | – | 0.955
E34 [9], 111.1111111 nM | – | 1
E34 [9], 333.333 nM | – | 1.04
E34 [9], 1000 nM | – | 1.05
E34 [9], 3000 nM | – | 0.512
E57 [6], 4.11523 nM | 0.316 | –
E57 [6], 12.34567901 nM | 0.564 | –
E57 [6], 37.037 nM | 0.5 | –
E57 [6], 111.1111111 nM | 0.407 | –
E57 [6], 333.333 nM | 0.482 | –
E57 [6], 1000 nM | 1 | –
E57 [6], 3000 nM | 4.42 | –
E57 [13], 4.11523 nM | – | 1.04
E57 [13], 12.34567901 nM | – | 0.962
E57 [13], 37.037 nM | – | 1.01
E57 [13], 111.1111111 nM | – | 1.05
E57 [13], 333.333 nM | – | 0.995
E57 [13], 1000 nM | – | 1.04
E57 [13], 3000 nM | – | 0.343
FT3469 [1], 4.11523 nM | 0.678 | –
FT3469 [1], 12.34567901 nM | 0.843 | –
FT3469 [1], 37.037 nM | 0.785 | –
FT3469 [1], 111.1111111 nM | 0.587 | –
FT3469 [1], 333.333 nM | 1.06 | –
FT3469 [1], 1000 nM | 0.639 | –
FT3469 [1], 3000 nM | 4.47 | –
FT3469 [8], 4.11523 nM | – | 1.14
FT3469 [8], 12.34567901 nM | – | 1.14
FT3469 [8], 37.037 nM | – | 1.11
FT3469 [8], 111.1111111 nM | – | 1.15
FT3469 [8], 333.333 nM | – | 1.32
FT3469 [8], 1000 nM | – | 0.997
FT3469 [8], 3000 nM | – | 0.189

Clc1ccc(COC(Cn2ccnc2)c2ccc(Cl)cc2Cl)cc1 (stereo unspecified) [Econazole nitrate]
Conditions | phenotypic distance | surviving fraction
E13 [5], 4.1 nM | 0.86 | –
E13 [5], 12.3 nM | 0.584 | –
E13 [5], 37 nM | 0.567 | –
E13 [5], 111.1 nM | 1.07 | –
E13 [5], 333.3 nM | 1.37 | –
E13 [5], 1000 nM | 0.962 | –
E13 [5], 3000 nM | 1.16 | –
E13 [12], 4.1 nM | – | 0.964
E13 [12], 12.3 nM | – | 1.05
E13 [12], 37 nM | – | 0.999
E13 [12], 111.1 nM | – | 1.11
E13 [12], 333.3 nM | – | 1.08
E13 [12], 1000 nM | – | 0.997
E13 [12], 3000 nM | – | 0.967
E21 [3], 4.1 nM | 0.651 | –
E21 [3], 12.3 nM | 0.516 | –
E21 [3], 37 nM | 0.785 | –
E21 [3], 111.1 nM | 0.844 | –
E21 [3], 333.3 nM | 0.917 | –
E21 [3], 1000 nM | 0.797 | –
E21 [3], 3000 nM | 1.31 | –
E21 [10], 4.1 nM | – | 1.11
E21 [10], 12.3 nM | – | 0.967
E21 [10], 37 nM | – | 0.99
E21 [10], 111.1 nM | – | 1.03
E21 [10], 333.3 nM | – | 1.01
E21 [10], 1000 nM | – | 1.11
E21 [10], 3000 nM | – | 1.18
E28 [4], 4.1 nM | 0.359 | –
E28 [4], 12.3 nM | 0.539 | –
E28 [4], 37 nM | 0.504 | –
E28 [4], 111.1 nM | 0.446 | –
E28 [4], 333.3 nM | 0.803 | –
E28 [4], 1000 nM | 0.72 | –
E28 [4], 3000 nM | 0.946 | –
E28 [11], 4.1 nM | – | 1.06
E28 [11], 12.3 nM | – | 1.03
E28 [11], 37 nM | – | 1.06
E28 [11], 111.1 nM | – | 0.943
E28 [11], 333.3 nM | – | 1.12
E28 [11], 1000 nM | – | 0.941
E28 [11], 3000 nM | – | 0.965
E31 [7], 4.1 nM | 0.819 | –
E31 [7], 12.3 nM | 0.415 | –
E31 [7], 37 nM | 0.765 | –
E31 [7], 111.1 nM | 0.767 | –
E31 [7], 333.3 nM | 0.871 | –
E31 [7], 1000 nM | 1.4 | –
E31 [7], 3000 nM | 1.39 | –
E31 [14], 4.1 nM | – | 1.03
E31 [14], 12.3 nM | – | 0.985
E31 [14], 37 nM | – | 0.969
E31 [14], 111.1 nM | – | 0.924
E31 [14], 333.3 nM | – | 1.08
E31 [14], 1000 nM | – | 1.17
E31 [14], 3000 nM | – | 1.14
E34 [2], 4.1 nM | 0.901 | –
E34 [2], 12.3 nM | 0.505 | –
E34 [2], 37 nM | 0.479 | –
E34 [2], 111.1 nM | 1.39 | –
E34 [2], 333.3 nM | 0.912 | –
E34 [2], 1000 nM | 1.29 | –
E34 [2], 3000 nM | 1.17 | –
E34 [9], 4.1 nM | – | 0.983
E34 [9], 12.3 nM | – | 1.08
E34 [9], 37 nM | – | 1.01
E34 [9], 111.1 nM | – | 1.17
E34 [9], 333.3 nM | – | 1.03
E34 [9], 1000 nM | – | 1.11
E34 [9], 3000 nM | – | 0.957
E57 [6], 4.1 nM | 0.324 | –
E57 [6], 12.3 nM | 0.67 | –
E57 [6], 37 nM | 0.501 | –
E57 [6], 111.1 nM | 0.756 | –
E57 [6], 333.3 nM | 0.858 | –
E57 [6], 1000 nM | 1.1 | –
E57 [6], 3000 nM | 1.45 | –
E57 [13], 4.1 nM | – | 1.02
E57 [13], 12.3 nM | – | 1.04
E57 [13], 37 nM | – | 1.07
E57 [13], 111.1 nM | – | 1.06
E57 [13], 333.3 nM | – | 1.09
E57 [13], 1000 nM | – | 1.03
E57 [13], 3000 nM | – | 1.05
FT3469 [1], 4.1 nM | 0.434 | –
FT3469 [1], 12.3 nM | 0.211 | –
FT3469 [1], 37 nM | 0.645 | –
FT3469 [1], 111.1 nM | 0.741 | –
FT3469 [1], 333.3 nM | 0.628 | –
FT3469 [1], 1000 nM | 0.747 | –
FT3469 [1], 3000 nM | 0.632 | –
FT3469 [8], 4.1 nM | – | 0.824
FT3469 [8], 12.3 nM | – | 0.949
FT3469 [8], 37 nM | – | 1.04
FT3469 [8], 111.1 nM | – | 1.03
FT3469 [8], 333.3 nM | – | 0.854
FT3469 [8], 1000 nM | – | 0.902
FT3469 [8], 3000 nM | – | 0.864
